From patent US20230365627A1, “MACROCYCLIC PEPTIDE BORONATE IMMUNOMODULATORS” (Bristol-Myers Squibb Company, priority 2020, published 2023) come the findings set out here.

*1 amine or outer side, *2 acyl side, *3 side chain or, on linkers, in order; H or OH if unused. Where a SMILES comes first, the peptide text is derived from it. Bridges are numbered along the chain shown (N, C = ends). [ ]: non-standard residue; d: D form. Trp(1-CH2CO) = O=C([C@H](Cc1cn(CC(=O)[*:3])c2ccccc12)N[*:1])[*:2]; X7 = O=C([C@H](CNCc1cc(B(O)O[*:3])ccc1OCc1ccccc1)N[*:1])[*:2]; X31 = O=C([C@H](CNCc1ccc(Cl)cc1B(O)O[*:3])N[*:1])[*:2]; X19 = O=C([C@H](CNCc1cccc(B(O)O[*:3])c1F)N[*:1])[*:2]; X8 = O=C([C@H](CNCc1ccc(B(O)O[*:3])cc1Cl)N[*:1])[*:2]; X20 = O=C([C@H](CCNCc1cccc(B(O)O)c1F)N[*:1])[*:2]; Hyp = O=C(O)[C@@H]1C[C@@H](O)CN1; NMeNle = CCCC[C@H](NC)C(=O)O; NMeA = CN[C@@H](C)C(=O)O; Dab = NCC[C@H](N)C(=O)O

This experiment concerns the target PD-1/PD-L1 (Homo sapiens (Human), UniProt Q9NZQ7). The experiment can be described thus: PD-1/PD-L1 Homogenous Time-Resolved Fluorescence (HTRF) binding assay. Conditions: PD-L1-His 10 nM, PD-1-Ig 20 nM; read-out: HTRF IC50. The source says: Methods for Testing the Ability of Macrocyclic Peptides to Compete for the Binding of PD-1 to PD-L1 Using Homogenous Time-Resolved Fluorescence (HTRF) Binding Assays
The ability of the compounds of formula (I) to bind to PD-L1 was investigated using a PD-1/PD-L1 Homogenous Time-Resolved Fluorescence (HTRF) binding assay.
Homogenous Time-Resolved Fluorescence (HTRF) Binding Assay
The interaction of PD-1 and PD-L1 can be assessed using soluble, purified preparations of the extracellular domains of the two proteins. The PD-1 and PD-L1 protein extracellular domains were expressed as fusion proteins with detection tags, for PD-1, the tag was the Fc portion of Immunoglobulin (PD-1-Ig) and for PD-L1 it was the 6 histidine motif (PD-L1-His). All binding studies were performed in an HTRF assay buffer consisting of dPBS supplemented with 0.1% […] bovine serum albumin and 0.05% (v/v) Tween-20. For the h/PD-L1-His binding assay, inhibitors were pre-incubated with PD-L1-His (10 nM final) for 15 m in 4 μl of assay buffer, followed by addition of PD-1-Ig (20 nM final) in 1 μl of assay buffer and further incubation for 15 m. HTRF detection was achieved using europium cryptate-labeled anti-Ig (1 nM final) and allophycocyanin (APC) labeled anti-His (20 nM final). Antibodies were diluted in HTRF detection buffer and 5 μl was dispensed on top of the binding reaction. The reaction mixture was allowed to equilibrate for 30 minutes and the resulting signal (665 nm/620 nm ratio) was obtained using an EnVision fluorometer. Additional binding assays were established between the human proteins PD-1-Ig/PD-L2-His (20 & 5 nM, respectively) and CD80-His/PD-L1-Ig (100 & 10 nM, respectively).
Recombinant Proteins: Human PD-1 (25-167) with a C-terminal human Fc domain of immunoglobulin G (Ig) epitope tag [hPD-1 (25-167)-3S-IG] and human PD-L1 (18-239) with a C-terminal His epitope tag [hPD-L1(18-239)-TVMV-His] were expressed in HEK293T cells and purified sequentially by ProteinA affinity chromatography and size exclusion chromatography. Human PD-L2-His and CD80-His was obtained through commercial sources.
Table 1 lists the IC50 values for representative examples of this disclosure measured in the PD-1/PD-L1 Homogenous Time-Resolved Fluorescence (HTRF) binding assay.
In general terms: TR-FRET usually uses a lanthanide donor and a delayed reading to cut background.

PD-1/PD-L1, sequence (Q9NZQ7 18-239): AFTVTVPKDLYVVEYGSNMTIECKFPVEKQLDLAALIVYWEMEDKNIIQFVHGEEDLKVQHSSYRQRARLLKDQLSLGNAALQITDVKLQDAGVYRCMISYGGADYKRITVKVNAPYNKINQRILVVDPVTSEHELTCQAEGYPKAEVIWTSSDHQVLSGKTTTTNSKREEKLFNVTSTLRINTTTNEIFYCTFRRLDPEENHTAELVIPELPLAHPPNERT

Broadly, the IC50 is the concentration at which inhibition is half-maximal. On to `CCCC[C@H]1C(=O)N(C)[C@@H](CCCC)C(=O)N[C@@H](CC(C)C)C(=O)N[C@H](C(=O)NCC(N)=O)CSCC(=O)N[C@@H](Cc2ccc(O)cc2)C(=O)N(C)[C@@H](C)C(=O)N[C@@H](CC(N)=O)C(=O)N2CCC[C@H]2C(=O)N[C@H]2CNCc3ccc(Cl)cc3B(O)OC(=O)Cn3cc(c4ccccc43)C[C@H](NC(=O)[C@H](CCN)NC(=O)[C@H](Cc3c[nH]c4ccccc34)NC(=O)[C@@H]3C[C@@H](O)CN3C(=O)[C@H](CC(C)C)NC2=O)C(=O)N1C` [Example 1018] ({CH2CO}-Y[NMeA]NP[X31]L[Hyp]W[Dab][Trp(1-CH2CO)][NMeNle][NMeNle]LCG-NH2; ester 5-10; thioether N-14), for which the IC50 is 4.9 nM.
On to `CCCC[C@H]1C(=O)N(C)[C@@H](CCCC)C(=O)N[C@@H](CC(C)C)C(=O)N[C@H](C(=O)NCC(N)=O)CSCC(=O)N[C@@H](Cc2ccc(O)cc2)C(=O)N(C)[C@@H](C)C(=O)N[C@@H](CC(N)=O)C(=O)N2CCC[C@H]2C(=O)N[C@H]2CNCc3cc(ccc3OCc3ccccc3)B(O)OC(=O)Cn3cc(c4ccccc43)C[C@H](NC(=O)[C@H](CCN)NC(=O)[C@H](Cc3c[nH]c4ccccc34)NC(=O)[C@@H]3C[C@@H](O)CN3C(=O)[C@H](CC(C)C)NC2=O)C(=O)N1C` [Example 1019] ({CH2CO}-Y[NMeA]NP[X7]L[Hyp]W[Dab][Trp(1-CH2CO)][NMeNle][NMeNle]LCG-NH2; ester 5-10; thioether N-14), for which the IC50 was determined as 4.8 nM.
Take `CCCC[C@H]1C(=O)N(C)[C@@H](CCCC)C(=O)N[C@@H](CC(C)C)C(=O)N[C@H](C(=O)NCC(N)=O)CSCC(=O)N[C@@H](Cc2ccc(O)cc2)C(=O)N(C)[C@@H](C)C(=O)N[C@@H](CC(N)=O)C(=O)N2CCC[C@H]2C(=O)N[C@H]2CNCc3ccc(cc3Cl)B(O)OC(=O)Cn3cc(c4ccccc43)C[C@H](NC(=O)[C@H](CCN)NC(=O)[C@H](Cc3c[nH]c4ccccc34)NC(=O)[C@@H]3C[C@@H](O)CN3C(=O)[C@H](CC(C)C)NC2=O)C(=O)N1C` [Example 1020] ({CH2CO}-Y[NMeA]NP[X8]L[Hyp]W[Dab][Trp(1-CH2CO)][NMeNle][NMeNle]LCG-NH2; ester 5-10; thioether N-14): the IC50 amounted to 14 nM.
Turning to `CCCC[C@H]1C(=O)N(C)[C@@H](CCCC)C(=O)N[C@@H](CC(C)C)C(=O)N[C@H](C(=O)NCC(N)=O)CSCC(=O)N[C@H]2Cc3ccc(cc3)OB(O)c3ccc(C)cc3CNCC[C@@H]3NC(=O)[C@H](Cc4c[nH]c5ccccc45)NC(=O)[C@@H]4C[C@@H](O)CN4C(=O)[C@H](CC(C)C)NC(=O)[C@H](CNCc4cc(C)ccc4B(O)OC(=O)Cn4cc(c5ccccc54)C[C@H](NC3=O)C(=O)N1C)NC(=O)[C@@H]1CCCN1C(=O)[C@H](CC(N)=O)NC(=O)[C@H](C)N(C)C2=O` [Example 1021], the IC50 was determined as 5.3 nM.
In the case of `CCCC[C@H]1C(=O)N(C)[C@@H](CCCC)C(=O)N[C@@H](CC(C)C)C(=O)N[C@H](C(=O)NCC(N)=O)CSCC(=O)N[C@@H](Cc2ccc(O)cc2)C(=O)N(C)[C@@H](C)C(=O)N[C@@H](CC(N)=O)C(=O)N2CCC[C@H]2C(=O)N[C@H]2CNCc3cccc(c3F)B(O)OC(=O)Cn3cc(c4ccccc43)C[C@H](NC(=O)[C@H](CCNCc3cccc(B(O)O)c3F)NC(=O)[C@H](Cc3c[nH]c4ccccc34)NC(=O)[C@@H]3C[C@@H](O)CN3C(=O)[C@H](CC(C)C)NC2=O)C(=O)N1C` [Example 1022] ({CH2CO}-Y[NMeA]NP[X19]L[Hyp]W[X20][Trp(1-CH2CO)][NMeNle][NMeNle]LCG-NH2; ester 5-10; thioether N-14), the IC50 turned out to be 5 nM.
